According to ChEMBL document CHEMBL1201862, “PubChem BioAssay data set” (2004):
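Each compound was tested at five concentrations against cells in 96-well plates for 48 hours. The concentration for 50% growth inhibition is given as GI50.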 The source made the active and inactive calls. Cut-off read from the data, not from the text of the source: active = GI50 up to about 1.1 µM and inactive = higher.

Columns and labels:
Assay in all cases: growth of human tumour cells (NCI), 48 h
786-0 = test system: 786-0
A498 = test system: A498
A549 = test system: A549
ACHN = test system: ACHN
BT-549 = test system: BT-549
CAKI-1 = test system: CAKI-1
CCRF-CEM = test system: CCRF-CEM
COLO 205 = test system: COLO 205
DU-145 = test system: DU-145
EKVX = test system: EKVX
HCC 2998 = test system: HCC 2998
HCT-116 = test system: HCT-116
HCT-15 = test system: HCT-15
HL-60 = test system: HL-60
HOP-62 = test system: HOP-62
HOP-92 = test system: HOP-92
HT-29 = test system: HT-29
Hs-578T = test system: Hs-578T
IGROV-1 = test system: IGROV-1
K562 = test system: K562
KM12 = test system: KM12
LOX IMVI = test system: LOX IMVI
M14 = test system: M14
MCF7 = test system: MCF7
MDA-MB-231 = test system: MDA-MB-231
MDA-MB-435 = test system: MDA-MB-435
MDA-N = test system: MDA-N
MOLT-4 = test system: MOLT-4
Malme-3M = test system: Malme-3M
NCI-H226 = test system: NCI-H226
NCI-H23 = test system: NCI-H23
NCI-H460 = test system: NCI-H460
NCI-H522 = test system: NCI-H522
NCI/ADR-RES = test system: NCI/ADR-RES
OVCAR-3 = test system: OVCAR-3
OVCAR-4 = test system: OVCAR-4
OVCAR-5 = test system: OVCAR-5
OVCAR-8 = test system: OVCAR-8
PC-3 = test system: PC-3
RPMI-8226 = test system: RPMI-8226
RXF 393 = test system: RXF 393
SF-268 = test system: SF-268
SF-295 = test system: SF-295
SF-539 = test system: SF-539
SK-MEL-28 = test system: SK-MEL-28
SK-MEL-2 = test system: SK-MEL-2
SK-MEL-5 = test system: SK-MEL-5
SK-OV-3 = test system: SK-OV-3
SN12C = test system: SN12C
SNB-19 = test system: SNB-19
SNB-75 = test system: SNB-75
SR = test system: SR
SW-620 = test system: SW-620
T47D = test system: T47D
TK-10 = test system: TK-10
U-251 = test system: U-251
UACC-257 = test system: UACC-257
UACC-62 = test system: UACC-62
UO-31 = test system: UO-31

Measured: GI50

O=C(Oc1cccnc1)c1cc2cc(CCl)ccc2oc1=O
23.8 µM: HCT-15
inactive: 786-0 18.5 µM | A498 48.5 µM | A549 65.3 µM | ACHN 18.9 µM | BT-549 24.8 µM | CAKI-1 18.7 µM | CCRF-CEM 20.7 µM | COLO 205 27.2 µM | DU-145 18.8 µM | EKVX 21.5 µM | HCC 2998 57.7 µM | HCT-116 17.7 µM | HL-60 22.8 µM | HOP-62 76.2 µM | HOP-92 20.6 µM | HT-29 17.1 µM | Hs-578T 25.4 µM | IGROV-1 25.5 µM | K562 19.5 µM | KM12 31.6 µM | LOX IMVI 21 µM | M14 21.4 µM | MCF7 3.15 µM | MDA-MB-231 20.8 µM | MDA-MB-435 25.9 µM | MDA-N 26.5 µM | MOLT-4 23.3 µM | Malme-3M 22.7 µM | NCI-H226 66.1 µM | NCI-H23 19.6 µM | NCI-H460 31 µM | NCI-H522 17 µM | NCI/ADR-RES 29.5 µM | OVCAR-3 25.5 µM | OVCAR-4 24.3 µM | OVCAR-5 22.6 µM | OVCAR-8 33.5 µM | PC-3 17.3 µM | RPMI-8226 24.5 µM | RXF 393 16.4 µM | SF-268 20.8 µM | SF-295 > 100 µM | SF-539 44.2 µM | SK-MEL-28 32.4 µM | SK-MEL-2 21.7 µM | SK-MEL-5 44.6 µM | SK-OV-3 > 100 µM | SN12C 21.6 µM | SNB-19 61.9 µM | SNB-75 29.7 µM | SR 24 µM | SW-620 35.3 µM | T47D 23.3 µM | TK-10 20.8 µM | U-251 24.3 µM | UACC-257 30.6 µM | UACC-62 8.71 µM | UO-31 20 µM

O=C1NCN(c2ccccc2)C12CCN(CCCN1CCN(CCOC(c3ccccc3)c3ccccc3)CC1)CC2
active: 786-0 0.753 µM | CCRF-CEM 0.859 µM | HCC 2998 0.501 µM | HT-29 1.11 µM | K562 0.447 µM | M14 1.08 µM | MDA-MB-435 0.923 µM | MDA-N 0.8 µM | SR 0.561 µM
1.86 µM: HCT-15
inactive: A498 3.36 µM | A549 4.14 µM | ACHN 2.5 µM | BT-549 3.92 µM | CAKI-1 3.78 µM | COLO 205 1.18 µM | DU-145 3.59 µM | EKVX 3.68 µM | HCT-116 2.33 µM | HL-60 1.18 µM | HOP-62 3.25 µM | HOP-92 1.93 µM | Hs-578T 3.48 µM | IGROV-1 4.03 µM | KM12 2.87 µM | LOX IMVI 3.01 µM | MCF7 3.11 µM | MDA-MB-231 3.52 µM | MOLT-4 2.13 µM | Malme-3M 2.23 µM | NCI-H226 2.96 µM | NCI-H23 3.94 µM | NCI-H460 3.84 µM | NCI-H522 1.73 µM | NCI/ADR-RES 4.54 µM | OVCAR-3 3.54 µM | OVCAR-4 3.53 µM | OVCAR-5 5.08 µM | OVCAR-8 3.33 µM | PC-3 3.99 µM | RPMI-8226 1.67 µM | RXF 393 1.5 µM | SF-268 2.4 µM | SF-295 2.69 µM | SF-539 1.25 µM | SK-MEL-28 1.34 µM | SK-MEL-2 3.11 µM | SK-MEL-5 1.28 µM | SK-OV-3 3.75 µM | SN12C 3.82 µM | SNB-19 3.94 µM | SNB-75 2.18 µM | SW-620 2.62 µM | T47D 3.02 µM | TK-10 3.83 µM | U-251 4.07 µM | UACC-257 1.47 µM | UACC-62 4.27 µM | UO-31 1.5 µM

O=[N+]([O-])c1ccc(S(=O)(=O)N=Ic2ccccc2)cc1
> 100 µM: HCT-15
inactive: 786-0 > 100 µM | A498 > 100 µM | A549 > 100 µM | ACHN > 100 µM | BT-549 > 100 µM | CAKI-1 > 100 µM | CCRF-CEM > 100 µM | COLO 205 > 100 µM | DU-145 > 100 µM | EKVX 97.7 µM | HCC 2998 > 100 µM | HCT-116 > 100 µM | HL-60 > 100 µM | HOP-62 > 100 µM | HOP-92 > 100 µM | HT-29 > 100 µM | Hs-578T > 100 µM | IGROV-1 > 100 µM | K562 > 100 µM | KM12 > 100 µM | LOX IMVI > 100 µM | M14 > 100 µM | MCF7 > 100 µM | MDA-MB-231 > 100 µM | MDA-MB-435 > 100 µM | MDA-N > 100 µM | MOLT-4 > 100 µM | Malme-3M > 100 µM | NCI-H226 > 100 µM | NCI-H23 > 100 µM | NCI-H460 > 100 µM | NCI-H522 > 100 µM | NCI/ADR-RES > 100 µM | OVCAR-3 > 100 µM | OVCAR-4 > 100 µM | OVCAR-5 > 100 µM | OVCAR-8 > 100 µM | PC-3 > 100 µM | RPMI-8226 > 100 µM | RXF 393 > 100 µM | SF-268 > 100 µM | SF-295 > 100 µM | SF-539 > 100 µM | SK-MEL-28 > 100 µM | SK-MEL-2 > 100 µM | SK-MEL-5 > 100 µM | SK-OV-3 > 100 µM | SN12C > 100 µM | SNB-19 > 100 µM | SNB-75 > 100 µM | SR > 100 µM | SW-620 > 100 µM | T47D > 100 µM | TK-10 > 100 µM | U-251 > 100 µM | UACC-257 > 100 µM | UACC-62 > 100 µM | UO-31 > 100 µM

OC(c1ccc(-c2ccccc2)cc1)C(F)(F)c1nc2ccccc2o1 (stereo unspecified)
inactive: 786-0 25.9 µM | A498 9.12 µM | A549 40.4 µM | ACHN 56.6 µM | BT-549 > 96.4 µM | CAKI-1 25.1 µM | CCRF-CEM > 45 µM | COLO 205 > 74 µM | DU-145 26.5 µM | EKVX > 73.3 µM | HCC 2998 > 100 µM | HCT-116 45.2 µM | HL-60 15.5 µM | HOP-62 30.7 µM | HOP-92 29.9 µM | HT-29 > 68.1 µM | Hs-578T 20.9 µM | IGROV-1 34 µM | K562 18.2 µM | KM12 36.8 µM | LOX IMVI > 95.3 µM | M14 > 100 µM | MCF7 25.3 µM | MDA-MB-231 17.5 µM | MDA-MB-435 > 86.9 µM | MDA-N > 100 µM | MOLT-4 28.5 µM | Malme-3M 91.8 µM | NCI-H226 > 48.3 µM | NCI-H23 39.9 µM | NCI-H460 37.5 µM | NCI-H522 25 µM | NCI/ADR-RES > 79.8 µM | OVCAR-3 35.8 µM | OVCAR-4 18.6 µM | OVCAR-5 > 100 µM | OVCAR-8 34.8 µM | PC-3 65.9 µM | RPMI-8226 51.3 µM | RXF 393 16.4 µM | SF-268 54.5 µM | SF-295 96.4 µM | SF-539 31.2 µM | SK-MEL-28 > 100 µM | SK-MEL-2 > 100 µM | SK-MEL-5 65.3 µM | SK-OV-3 37.2 µM | SN12C 50.5 µM | SNB-19 49 µM | SNB-75 27.8 µM | SR 25.9 µM | SW-620 > 100 µM | T47D 31.8 µM | TK-10 38.3 µM | U-251 30.7 µM | UACC-257 40.3 µM | UACC-62 > 78 µM | UO-31 55 µM
> 100 µM: HCT-15
